Data set [1] relates to Rattus norvegicus. Briefly: Toxicity in Wistar rat infected with methicillin-susceptible Staphylococcus aureus Smith diffuse assessed as behavioral alterations at 7 mg/kg administered as solution by soaking of graft after 7 days. Also noted: dose 7 mg/kg. The settings on record: in vivo, other, 168 h. Format: organism-based.
Data set [2] relates to Rattus norvegicus. Briefly: Toxicity in Wistar rat infected with methicillin-susceptible Staphylococcus aureus Smith diffuse assessed as diarrhea at 7 mg/kg administered as solution by soaking of graft after 7 days. Format: organism-based. Also noted: dose 7 mg/kg. The settings on record: in vivo, other, 168 h.
Data set [3] has as its system Rattus norvegicus. The experiment in a line: Toxicity in Wistar rat infected with methicillin-susceptible Staphylococcus aureus Smith diffuse assessed as vomiting at 7 mg/kg administered as solution by soaking of graft after 7 days. Format: organism-based. Also noted: dose 7 mg/kg. The conditions noted are these: in vivo, other, 168 h.
Data set [4] deals with Rattus norvegicus. Briefly: Toxicity in Wistar rat infected with methicillin-susceptible Staphylococcus aureus Smith diffuse assessed as anorexia at 7 mg/kg administered as solution by soaking of graft after 7 days. Format: organism-based. Also noted: dose 7 mg/kg. The settings on record: in vivo, other, 168 h.
Data set [5] deals with Rattus norvegicus. Briefly: Toxicity in Wistar rat infected with methicillin-susceptible Staphylococcus aureus Smith diffuse assessed as perigraft inflammation at 7 mg/kg administered as solution by soaking of graft after 7 days. Format: organism-based. Also noted: dose 7 mg/kg. The conditions noted are these: in vivo, other, 168 h.
For data set [6], the system named is Rattus norvegicus. Briefly: Toxicity in Wistar rat infected with methicillin-susceptible Staphylococcus aureus Smith diffuse assessed as mortality at 7 mg/kg administered as solution by soaking of graft after 7 days. Format: organism-based. Also noted: dose 7 mg/kg. The conditions noted are these: in vivo, other, 168 h.
The subject of data set [7] is Staphylococcus aureus. Briefly: Antimicrobial activity against methicillin-susceptible Staphylococcus aureus Smith diffuse assessed as inhibition of biofilm formation by cell-based microbroth dilution method. Format: functional.
Data set [8] deals with Rattus norvegicus. Briefly: Toxicity in Wistar rat infected with methicillin-susceptible Staphylococcus aureus Smith diffuse assessed as behavioral alterations administered as solution by soaking of graft after 7 days. Format: organism-based. The conditions noted are these: in vivo, other, 168 h.
Data set [9] has as its system Rattus norvegicus. The experiment in a line: Toxicity in Wistar rat infected with methicillin-susceptible Staphylococcus aureus Smith diffuse assessed as diarrhea administered as solution by soaking of graft after 7 days. The conditions noted are these: in vivo, other, 168 h. Format: organism-based.
The test system of data set [10] is Rattus norvegicus. The experiment in a line: Toxicity in Wistar rat infected with methicillin-susceptible Staphylococcus aureus Smith diffuse assessed as vomiting administered as solution by soaking of graft after 7 days. Format: organism-based. The conditions noted are these: in vivo, other, 168 h.
Data set [11] concerns Rattus norvegicus. The experiment in a line: Toxicity in Wistar rat infected with methicillin-susceptible Staphylococcus aureus Smith diffuse assessed as anorexia administered as solution by soaking of graft after 7 days. Format: organism-based. The conditions noted are these: in vivo, other, 168 h.
Data set [12] concerns Rattus norvegicus. Briefly: Toxicity in Wistar rat infected with methicillin-susceptible Staphylococcus aureus Smith diffuse assessed as perigraft inflammation administered as solution by soaking of graft after 7 days. The conditions noted are these: in vivo, other, 168 h. Format: organism-based.
The test system of data set [13] is Rattus norvegicus. The experiment in a line: Toxicity in Wistar rat infected with methicillin-susceptible Staphylococcus aureus Smith diffuse assessed as mortality administered as solution by soaking of graft after 7 days. Format: organism-based. The settings on record: in vivo, other, 168 h.
Data set [14] deals with Staphylococcus aureus. Briefly: Antimicrobial activity against methicillin-susceptible Staphylococcus aureus Smith diffuse infected in Wistar rat assessed as reduction in infection administered as solution by soaking of graft after 7 days relative to control. Format: functional, organism-based.

Values after ≈ are worked out from the molar mass of the structure shown. Active and inactive are the calls of the source. The rule behind the calls is not given here. Peptide text beside a SMILES is read from it.

Take `CCCCCCCCCC(=O)N[C@@H](Cc1c[nH]c2ccccc12)C(=O)N[C@H](CC(N)=O)C(=O)N[C@@H](CC(=O)O)C(=O)N[C@@H]1C(=O)NCC(=O)N[C@@H](CCCN)C(=O)N[C@@H](CC(=O)O)C(=O)N[C@H](C)C(=O)N[C@@H](CC(=O)O)C(=O)NCC(=O)N[C@H](CO)C(=O)N[C@@H]([C@H](C)CC(=O)O)C(=O)N[C@@H](CC(=O)c2ccccc2N)C(=O)O[C@@H]1C`: the Activity entry in [1], in data set [2], in [3], in [4], in data set [5] and in [6] was “Non-toxic” each time. Also, the MIC in [7] was 4 µg/mL (≈ 2.47 µM).

In the case of `C[C@@H](O)[C@H](NC(=O)[C@H](Cc1c[nH]c2ccccc12)NC(=O)[C@@H]1CCCN1)C(=O)N[C@@H](CC(N)=O)C(N)=O` (H-PWTN-NH2), the Activity result in data set [8], in [9], in data set [10], in [11], in data set [12] and in data set [13] was “Non-toxic” in each case. Moreover, the outcome in data set [14] was Active. Further, the MIC in data set [7] was > 128 µg/mL.

On to `C[C@@H](O)[C@H](NC(=O)[C@H](Cc1c[nH]c2ccccc12)NC(=O)[C@@H]1CCCN1C(=O)[C@@H](N)CO)C(N)=O` (H-SPWT-NH2), for which the Activity result in data set [8], in data set [9], in data set [10], in data set [11], in [12] and in data set [13] was “Non-toxic” in each case. Further, the outcome in data set [14] was Active. The MIC in data set [7] was > 128 µg/mL.

As to `C[C@@H](O)[C@H](NC(=O)[C@@H](N)Cc1c[nH]c2ccccc12)C(=O)N[C@@H](CC(N)=O)C(=O)N[C@@H](Cc1ccccc1)C(N)=O` (H-WTNF-NH2), the Activity entry in [8], in [9], in [10], in [11], in data set [12] and in data set [13] was “Non-toxic” in each case. In [14], the outcome was Active. Also, in data set [7], the MIC is > 128 µg/mL.

Turning to `NC(=O)[C@H](Cc1c[nH]c2ccccc12)NC(=O)[C@@H]1CCCN1C(=O)[C@H](CO)NC(=O)[C@@H](N)Cc1ccc(O)cc1` (H-YSPW-NH2), the Activity result in [8], in data set [9], in data set [10], in data set [11], in data set [12] and in [13] was “Non-toxic” throughout. Moreover, in data set [14], the result was Active. Also, in data set [7], the MIC was > 128 µg/mL.

In the case of H-ASPWTNF-NH2, the Activity entry in data set [8], in [9], in data set [10], in data set [11], in data set [12] and in [13] was “Non-toxic” in each case. Moreover, the outcome in data set [14] was Active. In data set [7], the MIC was > 128 µg/mL.

Regarding H-YAPWTNF-NH2, the Activity entry in data set [8], in data set [9], in [10], in data set [11], in data set [12] and in data set [13] was “Non-toxic” throughout. In addition, the outcome in [14] was Active. For the same compound, in [7], the MIC is > 128 µg/mL.

Take H-YSAWTNF-NH2: the Activity result in data set [8], in [9], in data set [10], in data set [11], in data set [12] and in [13] was “Non-toxic” in each case. Also, the result in data set [14] was Active. In addition, the MIC in data set [7] is > 128 µg/mL.

Take H-YSPATNF-NH2: the Activity entry in data set [8], in data set [9], in data set [10], in data set [11], in data set [12] and in data set [13] was “Non-toxic” each time. In [14], the outcome was Active. Also, the MIC in [7] was > 128 µg/mL.

In the case of H-YSPWANF-NH2, the Activity entry in data set [8], in data set [9], in [10], in [11], in data set [12] and in data set [13] was “Non-toxic” each time. For the same compound, the outcome in data set [14] was Active. Also, the MIC in data set [7] is > 128 µg/mL.

For H-YSPWTAF-NH2, the Activity result in [8], in data set [9], in data set [10], in [11], in data set [12] and in data set [13] was “Non-toxic” in each case. For the same compound, the result in data set [14] was Active. The MIC in [7] was > 128 µg/mL.

For the compound H-YSPWTNA-NH2, the Activity entry in data set [8], in data set [9], in [10], in data set [11], in data set [12] and in data set [13] was “Non-toxic” each time. The outcome in data set [14] was Active. Further, the MIC in data set [7] is > 128 µg/mL.

Take H-YSPWTNF-NH2: the outcome in data set [14] was Active.
